Measurements from ChEMBL document CHEMBL1201862, “PubChem BioAssay data set” (2004).
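Growth conditions: 96-well plates. Treatment: test compound, 48 hours, 5 concentrations. Analysis: linear interpolation between bracketing concentrations; unreached endpoints set to highest concentration. Here, GI50 denotes the concentration required for 50% inhibition of growth.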 Activity calls are given as the source filed them. Cut-off read from the data, not from the text of the source: active = GI50 up to about 1.1 µM and inactive = higher.

What was measured:
Assay in all cases: NCI anticancer screen, dose series, 48 h
786-0 = tested on: 786-0
A498 = tested on: A498
A549 = tested on: A549
ACHN = tested on: ACHN
BT-549 = tested on: BT-549
CAKI-1 = tested on: CAKI-1
CCRF-CEM = tested on: CCRF-CEM
COLO 205 = tested on: COLO 205
DU-145 = tested on: DU-145
EKVX = tested on: EKVX
HCC 2998 = tested on: HCC 2998
HCT-116 = tested on: HCT-116
HCT-15 = tested on: HCT-15
HL-60 = tested on: HL-60
HOP-62 = tested on: HOP-62
HOP-92 = tested on: HOP-92
HT-29 = tested on: HT-29
Hs-578T = tested on: Hs-578T
IGROV-1 = tested on: IGROV-1
K562 = tested on: K562
KM12 = tested on: KM12
LOX IMVI = tested on: LOX IMVI
M14 = tested on: M14
MCF7 = tested on: MCF7
MDA-MB-231 = tested on: MDA-MB-231
MDA-MB-435 = tested on: MDA-MB-435
MDA-N = tested on: MDA-N
MOLT-4 = tested on: MOLT-4
Malme-3M = tested on: Malme-3M
NCI-H226 = tested on: NCI-H226
NCI-H23 = tested on: NCI-H23
NCI-H460 = tested on: NCI-H460
NCI-H522 = tested on: NCI-H522
NCI/ADR-RES = tested on: NCI/ADR-RES
OVCAR-3 = tested on: OVCAR-3
OVCAR-4 = tested on: OVCAR-4
OVCAR-5 = tested on: OVCAR-5
OVCAR-8 = tested on: OVCAR-8
PC-3 = tested on: PC-3
RPMI-8226 = tested on: RPMI-8226
RXF 393 = tested on: RXF 393
SF-268 = tested on: SF-268
SF-295 = tested on: SF-295
SF-539 = tested on: SF-539
SK-MEL-28 = tested on: SK-MEL-28
SK-MEL-2 = tested on: SK-MEL-2
SK-MEL-5 = tested on: SK-MEL-5
SK-OV-3 = tested on: SK-OV-3
SN12C = tested on: SN12C
SNB-19 = tested on: SNB-19
SNB-75 = tested on: SNB-75
SR = tested on: SR
SW-620 = tested on: SW-620
T47D = tested on: T47D
TK-10 = tested on: TK-10
U-251 = tested on: U-251
UACC-257 = tested on: UACC-257
UACC-62 = tested on: UACC-62
UO-31 = tested on: UO-31

For `CC(NC1=CC(=O)c2cccnc2C1=O)C(O)c1ccccc1` (configuration not stated), the GI50 (786-0) was 2.79 µM (inactive), the GI50 (A498) was 3.62 µM (inactive) and the GI50 (A549) was 1.9 µM (inactive). The GI50 (ACHN) was 2.05 µM (inactive), the GI50 (BT-549) was 1.45 µM (inactive) and the GI50 (CAKI-1) was 1.32 µM (inactive). For the same compound, the GI50 (CCRF-CEM) was 4.02 µM (inactive), the GI50 (COLO 205) was 1.86 µM (inactive) and the GI50 (DU-145) was 1.6 µM (inactive). The GI50 (EKVX) was 6.04 µM (inactive), the GI50 (HCC 2998) was 3.1 µM (inactive) and the GI50 (HCT-116) was 2.22 µM (inactive). The GI50 (HCT-15) was 1.37 µM, the GI50 (HL-60) was 1.85 µM (inactive) and the GI50 (HOP-62) was 1.26 µM (inactive). For the same compound, the GI50 (HOP-92) was 9.73 µM (inactive), the GI50 (HT-29) was 2.86 µM (inactive) and the GI50 (Hs-578T) was 2.53 µM (inactive). The GI50 (IGROV-1) was 1.28 µM (inactive), the GI50 (K562) was 2.23 µM (inactive) and the GI50 (KM12) was 3.97 µM (inactive). The GI50 (LOX IMVI) was 0.942 µM (active), the GI50 (M14) was 1.5 µM (inactive) and the GI50 (MCF7) was 1.35 µM (inactive). The GI50 (MDA-MB-231) was 2.52 µM (inactive), the GI50 (MDA-MB-435) was 0.783 µM (active) and the GI50 (MDA-N) was 0.57 µM (active). The GI50 (MOLT-4) was 4.12 µM (inactive), the GI50 (Malme-3M) was 1.48 µM (inactive) and the GI50 (NCI-H226) was 1.96 µM (inactive). The GI50 (NCI-H23) was 1.06 µM (active), the GI50 (NCI-H460) was 0.733 µM (active) and the GI50 (NCI-H522) was 1.42 µM (inactive). The GI50 (NCI/ADR-RES) was 3.63 µM (inactive), the GI50 (OVCAR-3) was 1.64 µM (inactive) and the GI50 (OVCAR-4) was 2.94 µM (inactive). The GI50 (OVCAR-5) was 1.79 µM (inactive), the GI50 (OVCAR-8) was 2.92 µM (inactive) and the GI50 (PC-3) was 1.65 µM (inactive). The GI50 (RPMI-8226) was 2.09 µM (inactive), the GI50 (RXF 393) was 2.71 µM (inactive) and the GI50 (SF-268) was 2.36 µM (inactive). The GI50 (SF-295) was 1.28 µM (inactive), the GI50 (SF-539) was 1.84 µM (inactive) and the GI50 (SK-MEL-28) was 1.62 µM (inactive). For the same compound, the GI50 (SK-MEL-2) was 1.5 µM (inactive), the GI50 (SK-MEL-5) was 1.09 µM (active) and the GI50 (SK-OV-3) was 2.92 µM (inactive). For the same compound, the GI50 (SN12C) was 1.38 µM (inactive), the GI50 (SNB-19) was 2.08 µM (inactive) and the GI50 (SNB-75) was 1.35 µM (inactive). The GI50 (SR) was 2.86 µM (inactive), the GI50 (SW-620) was 1.66 µM (inactive) and the GI50 (T47D) was 2.87 µM (inactive). For the same compound, the GI50 (TK-10) was 14.8 µM (inactive), the GI50 (U-251) was 2.78 µM (inactive) and the GI50 (UACC-257) was 1.23 µM (inactive). For the same compound, the GI50 (UACC-62) was 1.65 µM (inactive) and the GI50 (UO-31) was 2.15 µM (inactive).
`CCN(CC)CCSc1c2cc(OC)ccc2nc2ccc(OC)cc12` was tested, and the GI50 (786-0) was 1.85 µM (inactive), the GI50 (A498) was 23 µM (inactive) and the GI50 (A549) was 16.1 µM (inactive). The GI50 (ACHN) was 2.21 µM (inactive), the GI50 (BT-549) was 5.69 µM (inactive) and the GI50 (CAKI-1) was 7.53 µM (inactive). The GI50 (CCRF-CEM) was 2.86 µM (inactive), the GI50 (COLO 205) was 1.98 µM (inactive) and the GI50 (DU-145) was 2.05 µM (inactive). For the same compound, the GI50 (EKVX) was 9.59 µM (inactive), the GI50 (HCC 2998) was 13.5 µM (inactive) and the GI50 (HCT-116) was 2.26 µM (inactive). The GI50 (HCT-15) was 2.86 µM, the GI50 (HL-60) was 5.3 µM (inactive) and the GI50 (HOP-62) was 16.7 µM (inactive). The GI50 (HOP-92) was 2.19 µM (inactive), the GI50 (HT-29) was 2.05 µM (inactive) and the GI50 (Hs-578T) was 1.68 µM (inactive). The GI50 (IGROV-1) was 1.95 µM (inactive), the GI50 (KM12) was 5.09 µM (inactive) and the GI50 (LOX IMVI) was 2.17 µM (inactive). For the same compound, the GI50 (M14) was 6.73 µM (inactive), the GI50 (MCF7) was 2.51 µM (inactive) and the GI50 (MDA-MB-231) was 6.53 µM (inactive). For the same compound, the GI50 (MDA-MB-435) was 7.03 µM (inactive), the GI50 (MDA-N) was 4.39 µM (inactive) and the GI50 (MOLT-4) was 2.29 µM (inactive). For the same compound, the GI50 (Malme-3M) was 2.75 µM (inactive), the GI50 (NCI-H226) was 16.2 µM (inactive) and the GI50 (NCI-H23) was 3.3 µM (inactive). The GI50 (NCI-H460) was 9.75 µM (inactive), the GI50 (NCI-H522) was 1.59 µM (inactive) and the GI50 (NCI/ADR-RES) was 7.67 µM (inactive). For the same compound, the GI50 (OVCAR-3) was 2.59 µM (inactive), the GI50 (OVCAR-4) was 6.03 µM (inactive) and the GI50 (OVCAR-5) was 15.8 µM (inactive). The GI50 (OVCAR-8) was 3.12 µM (inactive), the GI50 (PC-3) was 3.56 µM (inactive) and the GI50 (RPMI-8226) was 2.4 µM (inactive). The GI50 (RXF 393) was 7.38 µM (inactive), the GI50 (SF-268) was 3.08 µM (inactive) and the GI50 (SF-295) was 19.4 µM (inactive). For the same compound, the GI50 (SF-539) was 2.45 µM (inactive), the GI50 (SK-MEL-28) was 10.3 µM (inactive) and the GI50 (SK-MEL-2) was 17 µM (inactive). For the same compound, the GI50 (SK-MEL-5) was 13.6 µM (inactive), the GI50 (SK-OV-3) was 25.1 µM (inactive) and the GI50 (SN12C) was 3.03 µM (inactive). For the same compound, the GI50 (SNB-19) was 12.1 µM (inactive), the GI50 (SNB-75) was 14.4 µM (inactive) and the GI50 (SR) was 2.43 µM (inactive). For the same compound, the GI50 (SW-620) was 2.56 µM (inactive), the GI50 (T47D) was 1.93 µM (inactive) and the GI50 (TK-10) was 4.65 µM (inactive). For the same compound, the GI50 (U-251) was 7.94 µM (inactive), the GI50 (UACC-257) was 4.35 µM (inactive) and the GI50 (UACC-62) was 14.3 µM (inactive). For the same compound, the GI50 (UO-31) was 2.37 µM (inactive).
